One data set relates to many human cancer lines. As to conditions: many human cancer lines and resistant lines; read-out: cytotoxic IC50; cited from earlier work.
For another data set, the system named is HCT116. The data set can be described thus: Cytotoxic activity on HCT116. Format: cell-based. As to conditions: for IC50: Homo sapiens, read-out: HCT116 IC50; for antiproliferative / cytotoxic activity in words: comment on Table 1. As for the experimental part:
(§1) The cytotoxic activity of the prepared compounds was evaluated on various human cancer cell lines. The selected line was incubated at 37° C. in the presence of one of the novel compounds, added to the culture medium at various concentrations.

For the next data set, the system named is Tubulin. The data set can be described thus: Inhibition of tubulin polymerisation (ITP). Format: biochemical, sheep. As to conditions: tubulin 10 μM; inhibition of maximum assembly rate. The method, then:
To verify whether the antiproliferative activities of novel molecules 2 and 3 correlate with their anti-tubulin effects, their ability to inhibit tubulin polymerisation into microtubules was measured in vitro. Tubulin was purified from sheep brains according to the Shelanski method by two assembly-disassembly cycles. The stock solution (15-20 mg/mL), stored at −196° C., is thawed and diluted in the assembly buffer (0.1 M MES, 0.5 mM MgCl2, 1 mM EGTA, and 1 mM GTP, pH 6.6) to a final concentration of 10 μM. Tubulin assembly was monitored by fluorescence on 96-well plates according to the method of Barron et al. The tubulin solution (10 μM, 100 μL per well) was supplemented with inhibitor (DMSO, 1 μL) and incubated for 45 min at room temperature. GTP (1 mM final) was then added, the solution was rapidly mixed and the fluorescence (λex=350 nm, λem=440 nm) was measured on a Wallac Victor fluorimeter (Perkin Elmer). Fifty-percent inhibition of the maximum assembly rate (IC50) was determined in duplicate or triplicate on 10 concentrations flanking the IC50. For comparison, deoxypodophyllotoxin and isoCA-4 were used as positive controls.

Another data set relates to K562R. The data set can be described thus: Cytotoxic activity on K562R. As to conditions: Homo sapiens, K-562R; 72 hours of incubation; imatinib-resistant. It counts as cell-based. As for the experimental part: as §1
The subject of a further data set is A549. The data set is described as follows: Cytotoxic activity on A549. Format: cell-based. As to conditions: Homo sapiens, 72 hours of incubation, read-out: Cytotoxicity IC50 A549. As for the experimental part:
as §1

The subject of the next data set is K562. The data set can be described thus: Cytotoxic activity on K562. Format: cell-based. As to conditions: Homo sapiens, 72 hours of incubation, read-out: Cytotoxicity IC50 K562. The method, then:
as §1

The next data set has as its system MCF7. The data set can be described thus: Cytotoxic activity on MCF7. It counts as cell-based. As to conditions: Homo sapiens, 72 hours of incubation, read-out: Cytotoxicity IC50 MCF7. The method, then: as §1
The test system of the next data set is PC3. The data set is described as follows: Cytotoxic activity on PC3. It counts as cell-based. As to conditions: Homo sapiens, PC-3; 72 hours of incubation; read-out: Cytotoxicity IC50 PC3. As for the experimental part: as §1
For the next data set, the system named is U87. The data set is described as follows: Cytotoxic activity on U87. Format: cell-based. As to conditions: Homo sapiens, U-87 MG; 72 hours of incubation; read-out: Cytotoxicity IC50 U87. As for the experimental part: as §1
In the next data set the test system is U2OS. The data set is described as follows: Cytotoxic activity on U2OS. Format: cell-based. As to conditions: Homo sapiens, 72 hours of incubation, read-out: Cytotoxicity IC50 U2OS. The method, then:
as §1

A further data set has as its system SOJ6. The data set is described as follows: Cytotoxic activity on SOJ6. It counts as cell-based. As to conditions: Homo sapiens; 72 hours of incubation; read-out: Cytotoxicity IC50 SOJ6. As for the experimental part: as §1
In a further data set the test system is BxPC3. The data set can be described thus: Cytotoxic activity on BxPC3. As to conditions: Homo sapiens, BXPC-3; 72 hours of incubation; read-out: Cytotoxicity IC50 BxPC3. It counts as cell-based. The method, then:
as §1

A further data set concerns MiaPaCa 2. The data set can be described thus: Cytotoxic activity on MiaPaCa 2. As to conditions: Homo sapiens, MIA PaCa-2; 72 hours of incubation; read-out: Cytotoxicity IC50 MiaPaCa 2. It counts as cell-based. As for the experimental part:
as §1

A further data set deals with T1, HDAC8 (Homo sapiens, UniProt Q9BY41).
T1 sequence (Q9BY41 1-377): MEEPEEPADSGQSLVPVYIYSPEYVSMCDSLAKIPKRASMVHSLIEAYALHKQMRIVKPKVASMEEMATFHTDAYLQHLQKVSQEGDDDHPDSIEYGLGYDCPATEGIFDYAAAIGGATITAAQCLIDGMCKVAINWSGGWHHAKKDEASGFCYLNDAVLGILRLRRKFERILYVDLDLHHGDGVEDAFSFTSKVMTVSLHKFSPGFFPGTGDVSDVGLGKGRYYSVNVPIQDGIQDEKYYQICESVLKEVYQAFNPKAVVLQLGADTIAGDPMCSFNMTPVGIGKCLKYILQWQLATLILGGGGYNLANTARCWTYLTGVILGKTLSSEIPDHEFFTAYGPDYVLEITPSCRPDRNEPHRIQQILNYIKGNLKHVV
The data set can be described thus: Inhibition of HDAC8 activity. Format: biochemical.

In another data set the test system is HDACs 1 to 11. The data set can be described thus: Inhibition of HDACs 1 to 11 (panel). It counts as biochemical. As to conditions: percentage inhibition at test concentration of 1.0^−5 M.
The subject of a further data set is other human tumour lines. The data set is described as follows: Cytotoxicity to other human tumour lines (panel). It counts as cell-based. As to conditions: A549, K562, MCF7, PC3, U87, U2OS, SOJ6, BxPC-3, MiaPaCa-2, read-out: IC50 values across other human tumour lines. As for the experimental part:
as §1

The target in the next data set is T2, HDAC11 (Homo sapiens, UniProt Q96DB2).
T2 sequence (Q96DB2 1-347): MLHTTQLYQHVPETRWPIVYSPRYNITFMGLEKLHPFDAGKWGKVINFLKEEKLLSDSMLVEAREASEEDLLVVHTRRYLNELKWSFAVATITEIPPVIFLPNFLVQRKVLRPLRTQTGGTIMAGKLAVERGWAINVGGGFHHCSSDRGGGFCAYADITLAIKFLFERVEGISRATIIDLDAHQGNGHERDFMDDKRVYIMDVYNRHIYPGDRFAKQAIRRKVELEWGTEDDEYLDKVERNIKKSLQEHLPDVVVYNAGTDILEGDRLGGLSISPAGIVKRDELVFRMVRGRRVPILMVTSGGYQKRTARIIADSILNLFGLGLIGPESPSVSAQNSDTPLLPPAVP
The data set can be described thus: Inhibition of HDAC11 activity. As to conditions: FIG. 5. Format: biochemical.

The mark [1] stands for this setting: HCT-116, 72 hours of incubation.

Entries after “also recorded” stand apart in the source; their conditions may differ. Where two headings read alike, the source gives them in different places.

As usually defined, the IC50 is the concentration at which inhibition is half-maximal.

On to `COc1ccc(/C=C\c2cc(OC)c(OC)c(OC)c2)cc1O` [CA-4, combretastatin A-4], for which the IC50 in the data set on many human cancer lines was 1 to 2 nM.

For the compound `C=C(c1cc(OC)c(OC)c(OC)c1)c1ccc(OC)c(C(=O)NO)c1` [Compound 1, N-Hydroxy-2-methoxy-5-(1-(3,4,5-trimethoxyphenyl)vinyl)benzamide], the IC50 in the data set with HCT116 (setting [1]) was 233 ± 22 nM; with Tubulin, 20000 ± 1200 nM.

For `C=C(c1ccc(OC)c(/C=C/C(=O)NO)c1)c1cc(OC)c(OC)c(OC)c1` [Compound 2, (E)-N-Hydroxy-3-(2-methoxy-5-(1-(3,4,5-trimethoxyphenyl)vinyl)phenyl)acrylamide], the IC50 with HCT116 (setting [1]) was found to be 2.5 nM; in the data set on K562R, 1.6 nM; with Tubulin, 1600 nM; in the data set with A549 it was 1.7 nM; in the data set on K562 it was 1.6 nM; in the data set with MCF7, 2 nM. The IC50 in the data set on PC3 is 2.4 nM; in the data set on U87, 1.6 nM; with U2OS, 1.9 nM; in the data set with SOJ6 it was 6.8 nM; with BxPC3, 2.9 nM; in the data set on MiaPaCa 2, 5.1 nM. Further, the IC50 on HDAC8 is 340 nM; in the data set with other human tumour lines, 1.6 to 6.8 nM. For the same compound, the “selective inhibitory activity among HDACs 1 to 11” value in the data set on HDACs 1 to 11 is “selective inhibitory activity against HDAC8; also recorded: selective activity for HDAC8 and HDAC11”.

Turning to `C=C(c1ccc(OC)c(C#CCCC(=O)NO)c1)c1cc(OC)c(OC)c(OC)c1` [Compound 3, N-Hydroxy-5-(2-methoxy-5-(1-(3,4,5-trimethoxyphenyl)vinyl)phenyl)pent-4-ynamide], the IC50 in the data set with HCT116 (setting [1]) was determined as 35 nM; with K562R it was 33 nM; with Tubulin, 1700 nM; at HDAC11, 11000 nM. Besides, the “antiproliferative / cytotoxic activity in words” value with HCT116 was “cytotoxic at nanomolar concentrations”. In addition, the “selective inhibitory activity among HDACs 1 to 11” value in the data set with HDACs 1 to 11 is “selective inhibitory activity against HDAC8 and HDAC11; also recorded: selective activity for HDAC8 and HDAC11”.

For the compound `C=C(c1ccc(OC)c(C#CCCCC(=O)NO)c1)c1cc(OC)c(OC)c(OC)c1` [Compound 4, N-Hydroxy-6-(2-methoxy-5-(1-(3,4,5-trimethoxyphenyl)vinyl)phenyl)hex-5-ynamide], the figures for the IC50 in the data set on HCT116 (setting [1]) and in the data set with Tubulin were 372 ± 5 nM and 18000 ± 1200 nM, respectively.

Turning to `C=C(c1cc(OC)c(OC)c(OC)c1)c1ccc(OC)cc1/C=C/C(=O)NO` [Compound 8, (E)-N-Hydroxy-3-(5-methoxy-2-(1-(3,4,5-trimethoxyphenyl)vinyl)phenyl)acrylamide], the IC50 with HCT116 (setting [1]) stood at 2 ± 0.1 nM; in the data set with Tubulin, 2100 ± 400 nM. Also, the “selective inhibitory activity among HDACs 1 to 11” value in the data set on HDACs 1 to 11 was “selective inhibitory activity against HDAC6, HDAC8 and HDAC11; also recorded: selective activity for HDAC6, HDAC8 and HDAC11”.

For `C=C(c1cc(OC)c(OC)c(OC)c1)c1ccc2c(c1)c(/C=C/C(=O)NO)cn2C` [Compound 11, (E)-N-Hydroxy-3-(1-methyl-5-(1-(3,4,5-trimethoxyphenyl)vinyl)-1H-indol-3-yl)acrylamide], the IC50 in the data set on HCT116 (setting [1]) stood at 2.2 ± 0.26 nM; in the data set on Tubulin, 3700 ± 500 nM. Also, the “antiproliferative / cytotoxic activity in words” value with HCT116 is recorded as “excellent antiproliferative activity”. For the same compound, the “selective inhibitory activity among HDACs 1 to 11” value with HDACs 1 to 11 is “selective inhibitory activity against HDAC6 and HDAC8; also recorded: selective activity for HDAC6 and HDAC8”.

For the compound `C=C(c1cc(OC)c(OC)c(OC)c1)c1ccc2c(c1)cc(/C=C/C(=O)NO)n2C` [Compound 12, (E)-N-Hydroxy-3-(1-methyl-5-(1-(3,4,5-trimethoxyphenyl)vinyl)-1H-indol-2-yl)acrylamide], the values for the IC50 in the data set with HCT116 (setting [1]) and in the data set on Tubulin were 12 ± 2.5 nM and 5400 ± 1200 nM, respectively. Also, the “antiproliferative / cytotoxic activity in words” value with HCT116 is recorded as “excellent antiproliferative activity”. In addition, the “selective inhibitory activity among HDACs 1 to 11” value in the data set with HDACs 1 to 11 is “selective inhibitory activity against HDAC6, HDAC8 and HDAC11; also recorded: selective activity for HDAC6, HDAC8 and HDAC11”.

Regarding `C=C(c1cc(OC)c(OC)c(OC)c1)c1ccc(OC)c(/C=C/C(=O)NO)n1` [Compound 17, (E)-N-Hydroxy-3-(3-methoxy-6-(1-(3,4,5-trimethoxyphenyl)vinyl)pyridin-2-yl)acrylamide], the IC50 in the data set on HCT116 (setting [1]) worked out at 37.2 ± 0.6 nM; with Tubulin, 7500 ± 1500 nM. Moreover, the “antiproliferative / cytotoxic activity in words” value in the data set with HCT116 is on record as “excellent antiproliferative activity”.

Turning to `C=C(c1cc(OC)c(OC)c(OC)c1)c1ccc2c(c1)c(C(=O)NO)cn2C` [Compound 25, N-Hydroxy-1-methyl-5-(1-(3,4,5-trimethoxyphenyl)vinyl)-1H-indole-3-carboxamide], the IC50 in the data set on HCT116 (setting [1]) was 30 ± 1.5 nM; in the data set on Tubulin, 7300 ± 3300 nM. Moreover, the “antiproliferative / cytotoxic activity in words” value in the data set on HCT116 is listed as “excellent antiproliferative activity”.

Turning to `C=C(c1cc(OC)c(OC)c(OC)c1)c1ccc2c(c1)cc(C(=O)NO)n2C` [Compound 43, N-Hydroxy-1-methyl-5-(1-(3,4,5-trimethoxyphenyl)vinyl)-1H-indole-2-carboxamide], the IC50 in the data set with HCT116 (setting [1]) is 36 ± 4 nM; in the data set on Tubulin it was 81000 ± 15000 nM. Besides, the “antiproliferative / cytotoxic activity in words” value in the data set with HCT116 was “excellent antiproliferative activity”.

As for `C=C(c1cc(OC)c(OC)c(OC)c1)c1ccc2c(ccn2CCC(=O)NO)c1` [Compound 44, N-Hydroxy-3-(5-(1-(3,4,5-trimethoxyphenyl)vinyl)-1H-indol-1-yl)propanamide], the values for the IC50 in the data set with HCT116 (setting [1]) and in the data set on Tubulin were 393 ± 4.1 nM and 22000 ± 2000 nM, respectively.

For `C=C(c1ccc(OC)c(O)c1)c1cc(OC)c(OC)c(OC)c1` [isoCA-4, Isocombretastatin A-4, reference compound], the IC50 in the data set with HCT116 (HCT-116, 72 h) was 2 nM; with Tubulin it was 1800 ± 400 nM.

The values are drawn from patent US11014871B2, ““Multi-target” compounds with inhibitory activity towards histone deacetylases and tubulin polymerisation, for use in the treatment of cancer” (UNIVERSITE PARIS-SUD, priority 2016, dated 2021).
